The source of these data is ChEMBL document CHEMBL4673365, “Design, synthesis and biological evaluation of novel 4-(pyrrolo[2,3-d]pyrimidine-4-yloxy)benzamide derivatives as potential antitumor agents” (Bioorg Med Chem Lett, 2021).

The structures appear in SMILES notation.

The subject of test [1] is MCF7. In words: Cytotoxicity against human MCF7 cells after 72 hrs by MTT assay. The test is classed as functional, cell-based.
Test [2] has as its system A549. In words: Cytotoxicity against human A549 cells after 72 hrs by MTT assay. The format is functional, cell-based. Background: Tetrazolium dyes change colour on reduction, which living cells bring about.
The test system of test [3] is HeLa. In words: Cytotoxicity against human HeLa cells after 72 hrs by MTT assay. The format is functional, cell-based.
The target in test [4] is Hepatocyte growth factor receptor (Homo sapiens, UniProt P08581). In words: Inhibition of c-Met (unknown origin) by mobility shift assay.
Test [5] has as its system A549. In words: Induction of cell cycle arrest in human A549 cells assessed as accumulation at S phase at 5 uM incubated for 24 hrs by propidium iodide staining based flow cytometry (reference value: 27.97 %). The test is classed as functional. In general terms: In flow cytometry, cells or beads pass a laser one at a time.
Test [6] has as its system A549. In words: Induction of cell cycle arrest in human A549 cells assessed as accumulation at G2 phase at 5 uM incubated for 24 hrs by propidium iodide staining based flow cytometry (reference value: 7.56 %). The format is functional.
The test system of test [7] is A549. In words: Cytotoxicity against human A549 cells assessed as inhibition rate at 100 uM after 72 hrs by MTT assay relative to control. The format is functional.
In test [8] the test system is A549. In words: Cytotoxicity against human A549 cells assessed as inhibition rate at 33.33 uM after 72 hrs by MTT assay relative to control. The test is classed as functional.
Test [9] has as its system A549. In words: Induction of cell cycle arrest in human A549 cells assessed as accumulation at G0/G1 phase at 5 uM incubated for 24 hrs by propidium iodide staining based flow cytometry (reference value: 64.47 %). The test is classed as functional.
The subject of test [10] is A549. In words: Cytotoxicity against human A549 cells assessed as inhibition rate at 3.704 uM after 72 hrs by MTT assay relative to control. The format is functional.
Test [11] concerns A549. In words: Cytotoxicity against human A549 cells assessed as inhibition rate at 11.11 uM after 72 hrs by MTT assay relative to control. The test is classed as functional.
In test [12] the test system is A549. In words: Cytotoxicity against human A549 cells assessed as inhibition rate at 1.234 uM after 72 hrs by MTT assay relative to control. The format is functional.
Test [13] concerns A549. In words: Cytotoxicity against human A549 cells assessed as inhibition rate at 0.411 uM after 72 hrs by MTT assay relative to control. The test is classed as functional.
Test [14] has as its system A549. In words: Cytotoxicity against human A549 cells assessed as inhibition rate at 0.137 uM after 72 hrs by MTT assay relative to control. The test is classed as functional.
Test [15] relates to A549. In words: Cytotoxicity against human A549 cells assessed as reduction in cell survival after 72 hrs by MTT assay. The format is functional, cell-based. The note with it: dose 0.137-100 µM.
Where [16] appears, read: Homo sapiens, MCF7, 72 h, read-out: IC50.
The mark [17] stands for this setting: Homo sapiens, A549, 72 h, read-out: IC50.

Hepatocyte growth factor receptor, sequence (P08581 whole entry): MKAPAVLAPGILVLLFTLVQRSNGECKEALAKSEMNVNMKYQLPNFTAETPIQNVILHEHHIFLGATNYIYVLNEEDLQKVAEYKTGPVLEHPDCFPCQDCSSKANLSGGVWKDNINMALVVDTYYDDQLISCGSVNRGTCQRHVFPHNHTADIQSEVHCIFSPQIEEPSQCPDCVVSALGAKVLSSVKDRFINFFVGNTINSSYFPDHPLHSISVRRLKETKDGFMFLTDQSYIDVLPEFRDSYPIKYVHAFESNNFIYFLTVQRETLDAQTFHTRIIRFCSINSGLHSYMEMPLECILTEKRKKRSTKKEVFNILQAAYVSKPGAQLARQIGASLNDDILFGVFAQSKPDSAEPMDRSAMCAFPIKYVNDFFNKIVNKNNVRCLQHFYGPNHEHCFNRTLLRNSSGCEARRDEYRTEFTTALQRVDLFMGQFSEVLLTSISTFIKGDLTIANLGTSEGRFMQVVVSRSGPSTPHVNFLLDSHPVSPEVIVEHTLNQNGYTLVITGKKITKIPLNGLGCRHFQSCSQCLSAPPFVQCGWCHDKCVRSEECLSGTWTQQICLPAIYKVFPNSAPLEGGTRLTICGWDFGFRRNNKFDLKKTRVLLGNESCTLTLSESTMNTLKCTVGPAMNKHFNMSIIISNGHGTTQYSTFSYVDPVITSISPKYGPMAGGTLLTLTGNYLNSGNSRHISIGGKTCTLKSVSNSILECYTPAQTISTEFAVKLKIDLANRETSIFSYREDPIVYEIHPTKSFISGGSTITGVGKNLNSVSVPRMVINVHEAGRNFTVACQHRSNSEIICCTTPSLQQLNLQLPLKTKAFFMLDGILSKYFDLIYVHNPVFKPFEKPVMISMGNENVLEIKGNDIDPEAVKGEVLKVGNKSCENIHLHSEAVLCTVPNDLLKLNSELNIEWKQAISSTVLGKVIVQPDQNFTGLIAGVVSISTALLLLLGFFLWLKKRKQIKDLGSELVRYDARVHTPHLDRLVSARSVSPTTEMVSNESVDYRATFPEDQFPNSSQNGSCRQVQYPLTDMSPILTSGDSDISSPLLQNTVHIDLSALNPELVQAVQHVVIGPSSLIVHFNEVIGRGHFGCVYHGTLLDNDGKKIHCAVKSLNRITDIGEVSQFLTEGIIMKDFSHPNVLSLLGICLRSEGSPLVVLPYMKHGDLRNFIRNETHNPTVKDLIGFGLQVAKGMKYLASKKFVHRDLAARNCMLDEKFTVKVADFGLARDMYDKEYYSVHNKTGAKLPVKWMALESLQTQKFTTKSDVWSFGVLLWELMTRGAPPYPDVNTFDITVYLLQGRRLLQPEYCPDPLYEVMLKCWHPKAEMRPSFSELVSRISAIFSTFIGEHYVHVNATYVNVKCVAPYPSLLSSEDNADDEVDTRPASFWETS

In general, IC50 refers to the concentration that gives 50% inhibition. As for `Cn1ccc2c(Oc3ccc(NC(=O)c4cc5cccnc5n(-c5ccc(C(F)(F)F)c(Cl)c5)c4=O)cc3)ncnc21`, the IC50 entry in test [1] (mcf7) was “Not Active”; in [2] (a549), “Not Active”; in [3], 289 µM.
As to `Cn1ccc2c(Oc3ccc(NC(=O)c4cc5cccnc5n(-c5ccc(C(F)(F)F)cc5Cl)c4=O)cc3F)ncnc21`, the figures for the IC50 entry in [1] (mcf7), in test [2] (a549) and in test [3] were “Not Active”, “Not Active” and 170 µM, respectively.
For the compound `Cn1ccc2c(Oc3ccc(NC(=O)c4cc5cccnc5n(-c5ccccc5)c4=O)cc3F)ncnc21`, the IC50 in [1] (setting [16]) is 73.4 µM; in test [2] (setting [17]), 63.2 µM; in test [3], 51.8 µM.
`O=C(Nc1ccc(Oc2ncnc3[nH]ccc23)c(F)c1)c1cc2cccnc2n(-c2ccc(Cl)cc2)c1=O`: the IC50 in [4] was 1.18 µM; in test [1] (setting [16]) it was 45 µM; in [2] (setting [17]) it was 35.5 µM; in [3], 23.9 µM.
Regarding `Cn1ccc2c(Oc3ccc(NC(=O)c4cc5cccnc5n(-c5ccc(Br)cc5)c4=O)cc3F)ncnc21`, the IC50 in test [1] (setting [16]) is 59.4 µM; in [2] (setting [17]) it was 42.2 µM; in [3] it was 33.8 µM.
A word on the inhibition: it is the change of the read-out against control, counted positive when it falls. Turning to `CN1CCN(C2CCN(C(=O)Nc3cc(Oc4ccc(NC(=O)C5(C(=O)Nc6ccc(F)cc6)CC5)c(F)c4)ccn3)CC2)CC1` [GOLVATINIB], the Activity is 19.82% in [5], 6.53% in [6] and 73.65% in test [9]. The inhibition at 100 µM in test [7] came out at 85.1%. Further, the inhibition at 33.33 µM in [8] is 76.5%. Moreover, in test [10], the inhibition at 3.704 µM came out at 35.3%. Besides, the inhibition at 11.11 µM in test [11] is 47.5%. The inhibition at 1.234 µM in test [12] came out at 21.4%. The inhibition at 0.411 µM in test [13] turned out to be 17.2%. In addition, in test [14], the inhibition at 0.137 µM came to 13.7%. In addition, the IC50 in [1] (setting [16]) was 15.4 µM; in test [2] (setting [17]) it was 7.7 µM; in test [3], 4.23 µM.
As to `O=C(Nc1ccc(Oc2ncnc3[nH]ccc23)c(F)c1)c1cc2cccnc2n(-c2ccccc2)c1=O`, the IC50 in [1] (setting [16]) was 45 µM; in test [2] (setting [17]) it was 45.5 µM; in test [3], 36.9 µM.
The corresponding values for `O=C(Nc1ccc(Oc2ncnc3[nH]ccc23)c(F)c1)c1cc2cccnc2n(-c2ccc(C(F)(F)F)cc2Cl)c1=O` are 214 µM, 283 µM and 96.8 µM.
With `COc1ccc(-n2c(=O)c(C(=O)Nc3ccc(Oc4ncnc5c4ccn5C)cc3)cc3cccnc32)cc1`, the IC50 in test [1] (setting [16]) was 105 µM; in [2] (setting [17]), 83.2 µM; in test [3] it was 65.8 µM.
In the case of `Cn1ccc2c(Oc3ccc(NC(=O)c4cc5cccnc5n(-c5ccc(C(F)(F)F)cc5Cl)c4=O)cc3)ncnc21`, the IC50 entry in [1] (mcf7) was “Not Active”; in test [2] (setting [17]) it was 364 µM; in test [3] it was 174 µM.
For `Cn1ccc2c(Oc3ccc(NC(=O)c4cc5cccnc5n(-c5ccccc5)c4=O)cc3)ncnc21`, the IC50 in test [1] (setting [16]) worked out at 88.4 µM; in [2] (setting [17]), 66.2 µM; in test [3], 59.8 µM.
Consider `Cn1ccc2c(Oc3ccc(NC(=O)c4cc5cccnc5n(-c5ccc(F)cc5)c4=O)cc3F)ncnc21`, for which the IC50 in test [4] stood at 0.701 µM; in test [1] (setting [16]), 11.9 µM; in test [2] (setting [17]), 7.32 µM; in [3], 4.25 µM.
On the same counts, the results for `Cn1ccc2c(Oc3ccc(NC(=O)c4cc5cccnc5n(-c5ccc(Cl)cc5)c4=O)cc3F)ncnc21` are 3.79 µM, 75 µM, 55.5 µM and 43.9 µM.
Turning to `Cn1ccc2c(Oc3ccc(NC(=O)c4cc5cccnc5n(-c5ccc(C(F)(F)F)c(Cl)c5)c4=O)cc3F)ncnc21`, the IC50 result is “Not Active” in test [1] (mcf7), 320 µM in [2] (setting [17]) and 156 µM in test [3].
As for `Cn1ccc2c(Oc3ccc(NC(=O)c4cc5cccnc5n(-c5ccc(Br)cc5)c4=O)cc3)ncnc21`, the figures for the IC50 in test [1] (setting [16]), in test [2] (setting [17]) and in [3] were 79.4 µM, 52.2 µM and 43.8 µM, respectively.
In the case of `O=C(Nc1ccc(Oc2ncnc3[nH]ccc23)c(F)c1)c1cc2cccnc2n(-c2ccc(F)cc2)c1=O`, the Activity result is “Dose-dependent effect” in [15], 21.11% in test [5], 5.43% in test [6] and 73.46% in test [9]. Besides, in [7], the inhibition at 100 µM was 90.5%. The inhibition at 33.33 µM in test [8] came to 80.6%. The inhibition at 3.704 µM in test [10] worked out at 42.3%. Moreover, the inhibition at 11.11 µM in test [11] was 54.5%. Further, the inhibition at 1.234 µM in test [12] was 23.4%. Also, the inhibition at 0.411 µM in test [13] was 18.1%. Also, the IC50 worked out at 0.612 µM in test [4], 9.23 µM in test [1] (setting [16]), 5.29 µM in test [2] (setting [17]) and 3.72 µM in test [3]. Further, in test [14], the inhibition at 0.137 µM was found to be 12.7%.
For `O=C(Nc1ccc(Oc2ncnc3[nH]ccc23)c(F)c1)c1cc2cccnc2n(-c2ccc(Br)cc2)c1=O`, the IC50 in test [1] (setting [16]) came to 27 µM; in test [2] (setting [17]), 27.3 µM; in [3] it was 19.9 µM.
The corresponding values for `Cn1ccc2c(Oc3ccc(NC(=O)c4cc5cccnc5n(-c5ccc(Cl)cc5)c4=O)cc3)ncnc21` are 95 µM, 75.5 µM and 49.9 µM.
The corresponding values for `O=C(Nc1ccc(Oc2ncnc3[nH]ccc23)c(F)c1)c1cc2cccnc2n(-c2ccc(Br)cc2F)c1=O` are 102 µM, 218 µM and 87.8 µM.
